Key:
[1] = tested on: ABUTH; assay: Pre-emergence herbicidal action against ABUTH; format: in vivo, Abutilon theophrasti
In short: (§1)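 Greenhouse pots of sandy loam held seeds covered with soil, onto which the compound was applied before emergence. An aqueous suspension or emulsion of WP or EC was used at 600 to 800 l/ha with 0.2% wetting agent. Percent damage was judged visually at 3 weeks.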

[2] = tested on: ALOMY; assay: Pre-emergence herbicidal action against ALOMY; format: in vivo, Alopecurus myosuroides; settings: 80 g/ha, pre-emergence, scored visually after 3 weeks vs untreated controls (100% = plants have died, 0% = like control plants)
In short: as §1

[3] = tested on: AMARE; assay: Pre-emergence herbicidal action against AMARE; format: in vivo, Amaranthus retroflexus
In short: as §1

[4] = tested on: ECHCG; assay: Pre-emergence herbicidal action against ECHCG; format: in vivo, Echinochloa crus-galli; settings: 80 g/ha
In short: as §1

[5] = tested on: MATIN; assay: Pre-emergence herbicidal action against MATIN; format: in vivo, Matricaria inodora
In short: as §1

[6] = tested on: PHBPU; assay: Pre-emergence herbicidal action against PHBPU; format: in vivo, Pharbitis purpurea
In short: as §1

[7] = tested on: POLCO; assay: Pre-emergence herbicidal action against POLCO; format: in vivo, Polygonum convolvulus; settings: dosage 80 g/ha
In short: as §1

[8] = tested on: SETVI; assay: Pre-emergence herbicidal action against SETVI; format: in vivo, Setaria viridis
In short: as §1

[9] = tested on: VERPE; assay: Pre-emergence herbicidal action against VERPE; format: in vivo, Veronica persica; settings: dosage 80 g/ha
In short: as §1

[10] = tested on: VIOTR; assay: Pre-emergence herbicidal action against VIOTR; format: in vivo, Viola tricolor
In short: as §1

[11] = tested on: DIGSA; assay: Pre-emergence herbicidal action against DIGSA; format: in vivo, Digitaria sanguinalis
In short: as §1

[12] = tested on: ABUTH; assay: Post-emergence herbicidal action against ABUTH; format: in vivo, Abutilon theophrasti; settings: visual assessment about 3 weeks after treatment vs untreated controls
In short: (§2)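 Foliar application at one-leaf stage of formulated test compounds, aqueous spray at 600–800 l/ha with 0.2% wetting agent. Greenhouse, optimal conditions, ~3 weeks; damage scored visually in % relative to untreated plants.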

[13] = tested on: ALOMY; assay: Post-emergence herbicidal action against ALOMY; format: in vivo, Alopecurus myosuroides; settings: dosage 20 g/ha, visual assessment about 3 weeks after treatment vs untreated controls
In short: as §2

[14] = tested on: AMARE; assay: Post-emergence herbicidal action against AMARE; format: in vivo, Amaranthus retroflexus; settings: 20 g/ha, visual assessment about 3 weeks after treatment, 100% = plants have died, 0% = like control plants
In short: as §2

[15] = tested on: AVEFA; assay: Post-emergence herbicidal action against AVEFA; format: in vivo, Avena fatua; settings: 20 g/ha, visual assessment about 3 weeks after treatment, 100% = plants have died, 0% = like control plants
In short: as §2

[16] = tested on: MATIN; assay: Post-emergence herbicidal action against MATIN; format: in vivo, Matricaria inodora
In short: as §2

[17] = tested on: SETVI; assay: Post-emergence herbicidal action against SETVI; format: in vivo, Setaria viridis
In short: as §2

[18] = tested on: VERPE; assay: Post-emergence herbicidal action against VERPE; format: in vivo, Veronica persica
In short: as §2

[19] = tested on: VIOTR; assay: Post-emergence herbicidal action against VIOTR; format: in vivo, Viola tricolor
In short: as §2

[20] = tested on: AVEFA; assay: Pre-emergence herbicidal action against AVEFA; format: in vivo, Avena fatua; settings: Avena fatua, 504 h; 80 g/ha, pre-emergence
In short: as §1

[21] = tested on: ECHCG; assay: Post-emergence herbicidal action against ECHCG; format: in vivo, Echinochloa crus-galli; settings: Echinochloa crus-galli, 504 h, dosage 20 g/ha
In short: as §2

[22] = tested on: PHBPU; assay: Post-emergence herbicidal action against PHBPU; format: in vivo, Pharbitis purpurea; settings: Ipomoea purpurea, 504 h
In short: as §2

[23] = tested on: DIGSA; assay: Post-emergence herbicidal action against DIGSA; format: in vivo, Digitaria sanguinalis; settings: Digitaria sanguinalis, 504 h
In short: as §2

[24] = 80 g/ha, scored visually after 3 weeks vs untreated controls (100% = plants have died, 0% = like control plants)
[25] = Tripleurospermum inodorum, 504 h, dosage 20 g/ha

## CCc1c(C(=O)Nc2nnnn2CC)ccc(C(F)(F)F)c1C(=O)NC [Example 2-271]
[1]; [24]
  Pre-emergence action against ABUTH (herbicidal activity): 100%
[1]; dosage 20 g/ha, scored visually after 3 weeks vs untreated controls, 100% = plants have died, 0% = like control plants
  Pre-emergence action against ABUTH (herbicidal activity in percent): 100%
[2]
  Pre-emergence action against ALOMY (herbicidal activity): 80%
[3]; 20 g/ha, scored visually after 3 weeks vs untreated controls, 100% = plants have died, 0% = like control plants
  Pre-emergence action against AMARE in %: 100%
[3]; [24]
  Pre-emergence action against AMARE in %: 100%
[4]
  Pre-emergence action against ECHCG in %: 100%
[5]; dosage 20 g/ha
  Pre-emergence action against MATIN in %: 100%
[5]; dosage 80 g/ha
  Pre-emergence action against MATIN in %: 100%
[6]; dosage 80 g/ha
  Pre-emergence action against PHBPU in %: 100%
[7]
  Pre-emergence action against POLCO in %: 80%
[8]; dosage 20 g/ha
  Pre-emergence action against SETVI in %: 100%
[8]; dosage 80 g/ha
  Pre-emergence action against SETVI in %: 100%
[9]
  Pre-emergence action against VERPE in %: 100%
[10]; dosage 20 g/ha
  Pre-emergence action against VIOTR in %: 100%
[10]; dosage 80 g/ha
  Pre-emergence action against VIOTR in %: 100%
[11]; dosage 20 g/ha
  Pre-emergence action against DIGSA in %: 100%
[11]; dosage 80 g/ha
  Pre-emergence action against DIGSA in %: 100%
[12]; dosage 5 g/ha
  Post-emergence action against ABUTH in %: 100%
[12]; dosage 20 g/ha
  Post-emergence action against ABUTH in %: 100%
[13]
  Post-emergence action against ALOMY in %: 100%
[14]
  Post-emergence action at 20 g/ha against AMARE in %: 100%
[15]
  Post-emergence action at 20 g/ha against AVEFA in %: 80%
[16]; dosage 5 g/ha
  Post-emergence action against MATIN in %: 100%
[16]; dosage 20 g/ha
  Post-emergence action against MATIN in %: 100%
[17]; dosage 5 g/ha
  Post-emergence action against SETVI in %: 100%
[17]; dosage 20 g/ha
  Post-emergence action against SETVI in %: 100%
[18]; 5 g/ha
  Post-emergence action against VERPE in %: 80%
[18]; 20 g/ha
  Post-emergence action against VERPE in %: 90%
[19]; 5 g/ha
  Post-emergence action against VIOTR in %: 80%
[19]; 20 g/ha
  Post-emergence action against VIOTR in %: 80%

## CCc1c(C(=O)Nc2nnnn2C)ccc(C(F)F)c1C(=O)NC [Example 1-277]
[1]; Abutilon theophrasti, 504 h, 80 g/ha, scored visually after 3 weeks vs untreated controls (100% = plants have died, 0% = like control plants)
  pest or weed control at 80 g/ha: 100%
[1]; Abutilon theophrasti, 504 h, dosage 20 g/ha, scored visually after 3 weeks vs untreated controls, 100% = plants have died, 0% = like control plants, read-out: Pre-emergence action against ABUTH (herbicidal activity in percent)
  pest or weed control at 20 g/ha: 90%
[2]; Alopecurus myosuroides, 504 h
  pest or weed control at 80 g/ha: 90%
[3]; Amaranthus retroflexus, 504 h, 20 g/ha, scored visually after 3 weeks vs untreated controls, 100% = plants have died, 0% = like control plants
  pest or weed control at 20 g/ha: 100%
[3]; Amaranthus retroflexus, 504 h, 80 g/ha, scored visually after 3 weeks vs untreated controls, 100% = plants have died, 0% = like control plants
  pest or weed control at 80 g/ha: 100%
[20]
  pest or weed control at 80 g/ha: 90%
[4]; Echinochloa crus-galli, 504 h
  pest or weed control at 80 g/ha: 90%
[5]; [25]
  pest or weed control at 20 g/ha: 90%
[5]; Tripleurospermum inodorum, 504 h, dosage 80 g/ha
  pest or weed control at 80 g/ha: 100%
[6]; Ipomoea purpurea, 504 h, dosage 20 g/ha
  pest or weed control at 20 g/ha: 80%
[6]; Ipomoea purpurea, 504 h, dosage 80 g/ha
  pest or weed control at 80 g/ha: 90%
[7]; Fallopia convolvulus, 504 h
  pest or weed control at 80 g/ha: 90%
[8]; Setaria viridis, 504 h, dosage 80 g/ha
  pest or weed control at 80 g/ha: 100%
[9]; Veronica persica, 504 h
  pest or weed control at 80 g/ha: 90%
[10]; Viola tricolor, 504 h, dosage 20 g/ha
  pest or weed control at 20 g/ha: 100%
[10]; Viola tricolor, 504 h, dosage 80 g/ha
  pest or weed control at 80 g/ha: 100%
[11]; Digitaria sanguinalis, 504 h, dosage 20 g/ha
  pest or weed control at 20 g/ha: 100%
[11]; Digitaria sanguinalis, 504 h, dosage 80 g/ha
  pest or weed control at 80 g/ha: 100%
[12]; Abutilon theophrasti, 504 h, dosage 5 g/ha
  pest or weed control at 5 g/ha: 90%
[12]; Abutilon theophrasti, 504 h, dosage 20 g/ha
  pest or weed control at 20 g/ha: 90%
[14]; Amaranthus retroflexus, 504 h
  pest or weed control at 20 g/ha: 100%
[15]; Avena fatua, 504 h
  pest or weed control at 20 g/ha: 80%
[21]
  pest or weed control at 20 g/ha: 90%
[16]; Tripleurospermum inodorum, 504 h, dosage 5 g/ha
  pest or weed control at 5 g/ha: 90%
[16]; [25]
  pest or weed control at 20 g/ha: 90%
[22]; dosage 5 g/ha
  pest or weed control at 5 g/ha: 90%
[22]; dosage 20 g/ha
  pest or weed control at 20 g/ha: 90%
[17]; Setaria viridis, 504 h, dosage 5 g/ha
  pest or weed control at 5 g/ha: 90%
[17]; Setaria viridis, 504 h, dosage 20 g/ha
  pest or weed control at 20 g/ha: 90%
[18]; Veronica persica, 504 h, 5 g/ha
  pest or weed control at 5 g/ha: 80%
[18]; Veronica persica, 504 h, 20 g/ha
  pest or weed control at 20 g/ha: 90%
[19]; Viola tricolor, 504 h, 5 g/ha
  pest or weed control at 5 g/ha: 80%
[19]; Viola tricolor, 504 h, 20 g/ha
  pest or weed control at 20 g/ha: 90%
[23]; 5 g/ha
  pest or weed control at 5 g/ha: 90%
[23]; 20 g/ha
  pest or weed control at 20 g/ha: 90%

From patent US12655116B2, “Substituted isophthalic acid diamides” (Bayer Aktiengesellschaft, priority 2020, dated 2026)
